Laboratory results taken from patent US6737441B2, “Treatment of helicobacter with isothiocyanates” (priority 2000, dated 2004).
Values after ≈ are worked out from the molar mass of the structure shown. Where two headings read alike, the source gives them in different places.

How the values were obtained:
[1] = tested on: amoxicillin/clarithromycin/metronidazole - susceptible strains of Helicobacter pylori; assay: Bacteriostatic activity (MIC) against susceptible strains; assay type: cell-based; settings: for MIC: Helicobacter pylori, read-out: MIC
[2] = tested on: clarithromycin and/or metronidazole - intermediate or resistant strains of Helicobacter pylori; assay: Bacteriostatic activity (MIC) against intermediate or resistant strains; assay type: cell-based; settings: Helicobacter pylori, read-out: MIC
[3] = tested on: Helicobacter pylori
[4] = tested on: Helicobacter pylori; assay: microbe, parasite or virus in culture

Compound: C[S+]([O-])CCCCN=C=S (stereo not drawn) [Sulforaphane, 4-methylsulfinylbutyl isothiocyanate]
- MIC ([1]; H. pylori strain no 1): 2 µg/mL (≈ 11.3 µM)
- MIC ([1]; H. pylori strain no 2): 4 µg/mL (≈ 22.6 µM)
- MIC ([1]; H. pylori strain no 3): 2 µg/mL (≈ 11.3 µM)
- MIC ([1]; H. pylori strain no 4): 4 µg/mL (≈ 22.6 µM)
- MIC ([1]; H. pylori strain no 5): 4 µg/mL (≈ 22.6 µM)
- MIC ([1]; H. pylori strain no 6): 0.06 µg/mL (≈ 0.338 µM)
- MIC ([1]; H. pylori strain no 7): 0.06 µg/mL (≈ 0.338 µM)
- MIC ([1]; H. pylori strain no 8): 0.5 µg/mL (≈ 2.82 µM)
- MIC ([1]; H. pylori strain no 9): 2 µg/mL (≈ 11.3 µM)
- MIC ([1]; H. pylori strain no 10): 0.06 µg/mL (≈ 0.338 µM)
- MIC ([1]; H. pylori strain no 11): 2 µg/mL (≈ 11.3 µM)
- MIC ([1]; H. pylori strain no 12): 4 µg/mL (≈ 22.6 µM)
- MIC ([1]; H. pylori strain no 13): 4 µg/mL (≈ 22.6 µM)
- MIC ([1]; H. pylori strain no 14): 0.06 µg/mL (≈ 0.338 µM)
- MIC ([1]; H. pylori strain no 15): 0.06 µg/mL (≈ 0.338 µM)
- MIC ([1]; H. pylori strain no 16): 1 µg/mL (≈ 5.64 µM)
- MIC ([1]; H. pylori strain no 17): 0.5 µg/mL (≈ 2.82 µM)
- MIC ([1]; H. pylori strain no 18): 0.5 µg/mL (≈ 2.82 µM)
- MIC ([1]; H. pylori strain no 19): 2 µg/mL (≈ 11.3 µM)
- MIC ([1]; H. pylori strain no 20): 0.5 µg/mL (≈ 2.82 µM)
- MIC ([1]; H. pylori strain no 21): 0.5 µg/mL (≈ 2.82 µM)
- MIC ([1]; H. pylori strain no 22): 0.06 µg/mL (≈ 0.338 µM)
- MIC ([1]; H. pylori strain no 23): 0.06 µg/mL (≈ 0.338 µM)
- MIC ([1]; H. pylori strain no 24): 1 µg/mL (≈ 5.64 µM)
- MIC ([1]; H. pylori strain no 25): 0.5 µg/mL (≈ 2.82 µM)
- MIC ([1]; H. pylori strain no 26): 0.5 µg/mL (≈ 2.82 µM)
- MIC ([1]; H. pylori strain no 27): 0.06 µg/mL (≈ 0.338 µM)
- MIC ([1]; H. pylori strain no 28): 0.5 µg/mL (≈ 2.82 µM)
- MIC ([1]; H. pylori strain no 29): 2 µg/mL (≈ 11.3 µM)
- MIC ([1]; H. pylori strain no 30): 0.06 µg/mL (≈ 0.338 µM)
- MIC ([1]; H. pylori strain no 31): 4 µg/mL (≈ 22.6 µM)
- MIC ([1]; H. pylori strain no 32): 2 µg/mL (≈ 11.3 µM)
- inhibiting the growth of H. pylori compared to traditional antibiotics ([1]; versus amoxycillin, clarithromycin and metronidazole, several strains (Tables 1 and 2)): as effective, if not more effective
- MIC ([2]; H. pylori strain no 33): 4 µg/mL (≈ 22.6 µM)
- MIC ([2]; H. pylori strain no 34): 0.5 µg/mL (≈ 2.82 µM)
- MIC ([2]; H. pylori strain no 35): 4 µg/mL (≈ 22.6 µM)
- MIC ([2]; H. pylori strain no 36): 4 µg/mL (≈ 22.6 µM)
- MIC ([2]; H. pylori strain no 37): 0.5 µg/mL (≈ 2.82 µM)
- MIC ([2]; H. pylori strain no 38): 2 µg/mL (≈ 11.3 µM)
- MIC ([2]; H. pylori strain no 39): 0.5 µg/mL (≈ 2.82 µM)
- MIC ([2]; H. pylori strain no 40): 4 µg/mL (≈ 22.6 µM)
- MIC ([2]; H. pylori strain no 41): 0.125 µg/mL (≈ 0.705 µM)
- MIC ([2]; H. pylori strain no 42): 4 µg/mL (≈ 22.6 µM)
- MIC ([2]; H. pylori strain no 43): 8 µg/mL (≈ 45.1 µM)
- MIC ([2]; H. pylori strain no 44): 0.5 µg/mL (≈ 2.82 µM)
- MIC ([2]; H. pylori strain no 45): 1 µg/mL (≈ 5.64 µM)
- MIC ([2]; H. pylori strain no 46): 2 µg/mL (≈ 11.3 µM)
- MIC ([2]; H. pylori strain no 47): 4 µg/mL (≈ 22.6 µM)
- Time (h) at which 99.9% intracellular killing was observed ([3]; HP 1, 1 × MIC, tested in triplicate): 8 h
- Time (h) at which 99.9% intracellular killing was observed ([3]; HP 1, 5 × MIC, tested in triplicate): 8 h
- Time (h) at which 99.9% intracellular killing was observed ([3]; HP 1, 10 × MIC, tested in triplicate): 8 h
- Time (h) at which 99.9% intracellular killing was observed ([3]; HP 1, 20 × MIC, tested in triplicate): 8 h
- Actual reductions (log10CFU) ([3]; HP 2, 2 h, 1x MIC): 0 log10CFU
- Actual reductions (log10CFU) ([3]; HP 2, 2 h, 5x MIC): 0 log10CFU
- Actual reductions (log10CFU) ([3]; HP 2, 2 h, 10x MIC): 0 log10CFU
- Actual reductions (log10CFU) ([3]; HP 2, 2 h, 20x MIC): −0.12 log10CFU
- Actual reductions (log10CFU) ([3]; HP 2, 4 h, 1x MIC): −0.79 log10CFU
- Actual reductions (log10CFU) ([3]; HP 2, 4 h, 5x MIC): −0.90 log10CFU
- Actual reductions (log10CFU) ([3]; HP 2, 4 h, 10x MIC): −1.17 log10CFU
- Actual reductions (log10CFU) ([3]; HP 2, 4 h, 20x MIC): −1.30 log10CFU
- Actual reductions (log10CFU) ([3]; HP 2, 8 h, 1x MIC): −0.90 log10CFU
- Actual reductions (log10CFU) ([3]; HP 2, 8 h, 5x MIC): −0.90 log10CFU
- Actual reductions (log10CFU) ([3]; HP 2, 8 h, 10x MIC): −1.30 log10CFU
- Actual reductions (log10CFU) ([3]; HP 2, 8 h, 20x MIC): −1.40 log10CFU
- Actual reductions (log10CFU) ([3]; HP 2, 24 h, 1x MIC): −1.18 log10CFU
- Actual reductions (log10CFU) ([3]; HP 2, 24 h, 5x MIC): −1.20 log10CFU
- Actual reductions (log10CFU) ([3]; HP 2, 24 h, 10x MIC): −1.34 log10CFU
- Actual reductions (log10CFU) ([3]; HP 2, 24 h, 20x MIC): −1.40 log10CFU
- Actual reductions (log10CFU) ([3]; HP 2, 48 h, 1x MIC): −1.20 log10CFU
- Actual reductions (log10CFU) ([3]; HP 2, 48 h, 5x MIC): −1.20 log10CFU
- Actual reductions (log10CFU) ([3]; HP 2, 48 h, 10x MIC): −1.40 log10CFU
- Actual reductions (log10CFU) ([3]; HP 2, 48 h, 20x MIC): −1.40 log10CFU
- Time (h) at which 99.9% intracellular killing was observed ([3]; HP 3, 1 × MIC, tested in triplicate): 4 h
- Time (h) at which 99.9% intracellular killing was observed ([3]; HP 3, 5 × MIC, tested in triplicate): 4 h
- Time (h) at which 99.9% intracellular killing was observed ([3]; HP 3, 10 × MIC, tested in triplicate): 4 h
- Time (h) at which 99.9% intracellular killing was observed ([3]; HP 3, 20 × MIC, tested in triplicate): 2 h
- Time (h) at which 99.9% intracellular killing was observed ([3]; HP 4, 1 × MIC, tested in duplicate, not definitive): 8 h
- Time (h) at which 99.9% intracellular killing was observed ([3]; HP 4, 5 × MIC, tested in duplicate, not definitive): 8 h
- Time (h) at which 99.9% intracellular killing was observed ([3]; HP 4, 10 × MIC, tested in duplicate, not definitive): 8 h
- Time (h) at which 99.9% intracellular killing was observed ([3]; HP 4, 20 × MIC, tested in duplicate, not definitive): 4 h
- MIC ([4]; strain HP 1): 2 µg/mL (≈ 11.3 µM)
- MIC ([4]; strain HP 2): 2 µg/mL (≈ 11.3 µM)
- MIC ([4]; strain HP 3): 4 µg/mL (≈ 22.6 µM)
- MIC ([4]; strain HP 4): 0.06 µg/mL (≈ 0.338 µM)
